US20250129067A1 (Progentos Therapeutics, Inc., priority 2021, published 2025)
Where a name gives a salt, the structure may show the parent alone. Read-outs that look alike come from different tables or passages of the source.

Columns and labels:
[1] = system: GPR17+ cells (newly differentiated oligodendrocytes); assay: In vivo OPC differentiation, GPR17+ cells in brain; conditions: for In vivo GPR17+ cells, GPR17 Fold Induction (Over Vehicle): adult female C57BL/6 mice, PO or IP, treatment period 1-3 days, entire brain, fold change over vehicle treated animals
[2] = system: Oligodendrocyte progenitor cells (OPCs); assay: In vitro OPC differentiation assay, GPR17 expression (immunocytochemistry); conditions: 72 hours; for GPR17 Fold Induction (Over Vehicle; 5 μM): primary rat OPCs, 5 μM (10x; final 0.5 μM per method), percent GPR17+ cells as fold change over vehicle; for GPR17 Fold Induction (Over Vehicle; 3 μM): 3 μM (10× concentration, final 0.3 μM), fold change over vehicle
PDGFRα = PDGFRα (Homo sapiens (Human), UniProt P16234); assay: PDGFRα kinase enzyme assay (Promega PDGFRα Kinase Enzyme System, ADP-Glo); format: biochemical; conditions: 150 uM ATP
Summary of the method: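 Purified PDGFRα protein (20 ng) reacted with test compound per the Promega kinase system protocol. ADP formed was measured by ADP-Glo luminescence against a standard curve, giving IC50.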

[3] = 20 ng purified PDGFRα, Poly (Glu4Tyr1) substrate, two hours, 11-point dose response, read-out: IC50 Values on PDGFRα Kinase Inhibition
[4] = Mus musculus, po, 24 h, read-out: GPR17 Fold Induction (Over Vehicle)
[5] = 11-point dose response, 10,000 nM to 0.169 nM, BLQ = below limit of quantitation, read-out: IC50 Values on PDGFRα Kinase Inhibition, IC50

PDGFRα, sequence (P16234 24-1089): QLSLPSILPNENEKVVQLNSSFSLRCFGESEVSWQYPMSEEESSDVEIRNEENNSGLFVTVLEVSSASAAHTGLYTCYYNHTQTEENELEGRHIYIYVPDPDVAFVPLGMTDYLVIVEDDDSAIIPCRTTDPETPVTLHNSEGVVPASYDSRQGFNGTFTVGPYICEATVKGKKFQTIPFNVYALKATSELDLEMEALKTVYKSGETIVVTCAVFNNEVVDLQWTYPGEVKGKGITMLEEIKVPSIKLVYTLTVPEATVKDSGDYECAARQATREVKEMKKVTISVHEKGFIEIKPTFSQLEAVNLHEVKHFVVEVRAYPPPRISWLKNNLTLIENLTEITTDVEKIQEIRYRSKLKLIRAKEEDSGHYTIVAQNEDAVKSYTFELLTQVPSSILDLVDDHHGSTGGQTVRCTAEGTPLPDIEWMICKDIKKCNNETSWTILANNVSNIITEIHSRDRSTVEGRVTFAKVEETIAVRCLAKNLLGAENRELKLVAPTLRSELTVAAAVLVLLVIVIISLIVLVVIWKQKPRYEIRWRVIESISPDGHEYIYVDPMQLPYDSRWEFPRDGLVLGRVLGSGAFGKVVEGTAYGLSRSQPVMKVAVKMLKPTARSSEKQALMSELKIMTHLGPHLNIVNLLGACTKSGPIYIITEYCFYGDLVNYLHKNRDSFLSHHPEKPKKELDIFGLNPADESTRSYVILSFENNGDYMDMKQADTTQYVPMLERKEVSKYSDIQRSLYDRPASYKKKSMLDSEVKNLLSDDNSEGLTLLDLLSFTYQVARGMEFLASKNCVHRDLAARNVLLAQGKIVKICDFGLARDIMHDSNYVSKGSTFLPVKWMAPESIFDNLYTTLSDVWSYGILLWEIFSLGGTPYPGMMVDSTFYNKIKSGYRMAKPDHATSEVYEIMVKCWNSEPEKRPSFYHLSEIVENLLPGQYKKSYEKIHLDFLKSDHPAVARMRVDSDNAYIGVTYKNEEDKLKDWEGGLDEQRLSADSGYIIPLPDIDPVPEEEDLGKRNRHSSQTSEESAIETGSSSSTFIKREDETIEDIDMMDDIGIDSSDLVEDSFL

Row | SMILES | In vivo GPR17+ cells, GPR17 Fold Induction (Over Vehicle) [1] | GPR17 Fold Induction (Over Vehicle; 3 μM) [2] | IC50 (PDGFRα; [5]) | further results
1 | CCN(CC)CCNC(=O)c1c(C)[nH]c(/C=C2\C(=O)Nc3ccc(-c4csc(-c5ccccc5)n4)cc32)c1C [Amcasertib, amcasertib, reference compound] | 1.49 |  |  | 
2 | S=C(NCc1ccc2c(c1)OCO2)N1CCN(c2ncnc3c2oc2ccccc23)CC1 [Amuvatinib, amuvatinib, reference compound] | 2.18 |  |  | 
3 | COc1cc2c(Oc3ccc4[nH]c(C)cc4c3F)ccnc2cc1OCC1(N)CC1 [Anlotinib HCl, anlotinib HCl, reference compound] | 17.89 |  |  | GPR17 Fold Induction (Over Vehicle; 5 μM) [2]: 6.58; IC50 (PDGFRα; [3]): 1360 nM
4 | Nc1nc(Nc2ccc3c(c2)CC[C@@H](N2CCCC2)CC3)nn1-c1cc2c(nn1)-c1ccccc1CCC2 [Bemcentinib, bemcentinib, reference compound] | 1.09 |  |  | GPR17 Fold Induction (Over Vehicle; 5 μM) [2]: 2.99; IC50 (PDGFRα; [3]): 428 nM
5 | COCCOc1ccc2c(c1)ncn2-c1ccc2cccc(N3CCC(N)CC3)c2n1 [CP-673451, reference compound] | 3.52 |  |  | GPR17 Fold Induction (Over Vehicle; 5 μM) [2]: 2.94; IC50 (PDGFRα; [3]): 115 nM
6 | Cn1cc(-c2cnc3c(N4CCN(C(=O)OC(C)(C)C)CC4)cnn3c2)cn1 [Compound 2, tert-butyl 4-[6-(1-methyl-1H-pyrazol-4-yl)pyrazolo[1,5-a]pyrimidin-3-yl]piperazine-1-carboxylate] |  | 1.46 | 1460 nM | fold induction at 3.3 mg/kg [1, 4]: 1.13
7 | Cn1cc(-c2ccc3c(N4CCN(C(=O)CC(C)(C)C)CC4)cnn3c2)cn1 [Compound 17, 3-[4-(3,3-dimethylbutanoyl)piperazin-1-yl]-6-(1-methyl-1H-pyrazol-4-yl)pyrazolo[1,5-a]pyridine] |  | 1.14 | 1600 nM | fold induction at 3.3 mg/kg [1, 4]: 1.14
8 | Cn1cc(-c2cn3c(N4CCN(c5ncc(Cc6ccccc6)cn5)CC4)cnc3cn2)cn1 [Compound 21, 3-[4-(5-benzylpyrimidin-2-yl)piperazin-1-yl]-6-(1-methyl-1H-pyrazol-4-yl)imidazo[1,2-a]pyrazine] |  |  |  | fold induction at 150 mg/kg ([1]; Mus musculus, ip, 24 h, read-out: GPR17 Fold Induction (Over Vehicle)): 1.48
9 | Cn1cc(-c2ccc3c(C4CCN(c5ncc(Cc6ccccc6)cn5)CC4)cnn3c2)cn1 [Compound 63, 3-[1-(5-benzylpyrimidin-2-yl)piperidin-4-yl]-6-(1-methyl-1H-pyrazol-4-yl)pyrazolo[1,5-a]pyridine] |  | 8.97 | 1100 nM | fold induction at 3 mg/kg [1, 4]: 1.83
10 | Cc1ccc(Cc2cnc(N3CCN(c4cnn5cc(-c6cnn(C)c6)ccc45)CC3)nc2)cc1 [Compound 67, 3-{4-[5-(4-methylbenzyl)pyrimidin-2-yl]piperazin-1-yl}-6-(1-methyl-1H-pyrazol-4-yl)pyrazolo[1,5-a]pyridine] |  | 3.41 | 784 nM | fold induction at 10 mg/kg [1, 4]: 9.4
11 | Cn1cc(-c2ccc3c(N4CCN(c5ncc(C(O)C6CCOCC6)cn5)CC4)cnn3c2)cn1 (stereo not drawn) [Compound 69, (2-{4-[6-(1-methyl-1H-pyrazol-4-yl)pyrazolo[1,5-a]pyridin-3-yl]piperazin-1-yl}pyrimidin-5-yl)(tetrahydro-2H-pyran-4-yl)methanol] |  | 4.53 | 154 nM | fold induction at 3 mg/kg [1, 4]: 1.09; fold induction at 30 mg/kg [1, 4]: 2.34
12 | C[C@@H](OC(=O)N1CCN(c2cnn3cc(-c4cnn(C)c4)cnc23)CC1)c1ccccc1 [Compound 73, (1R)-1-Phenylethyl 4-[6-(1-methyl-1H-pyrazol-4-yl)pyrazolo[1,5-a]pyrimidin-3-yl]piperazine-1-carboxylate] |  | 6.68 | 116 nM | fold induction at 3 mg/kg [1, 4]: 1.77
13 | C[C@@H](OC(=O)N1CCN(c2cnn3cc(-c4cnn(C)c4)ccc23)CC1)c1ccc(F)cc1 [Compound 77, (1R)-1-(4-Fluorophenyl)ethyl 4-[6-(1-methyl-1H-pyrazol-4-yl)pyrazolo[1,5-a]pyridin-3-yl]piperazine-1-carboxylate] |  | 7.12 |  | fold induction at 3 mg/kg [1, 4]: 8.64; IC50 Values on PDGFRα Kinase Inhibition, IC50 (nM) (PDGFRα; 11-point dose response, 10,000 nM to 0.169 nM, BLQ = below limit of quantitation): BLQ
14 | C[C@@H](OC(=O)N1CCN(c2cnn3cc(-c4cnn(C)c4)ccc23)CC1)c1cccc(F)c1 [Compound 79, (1R)-1-(3-Fluorophenyl)ethyl 4-[6-(1-methyl-1H-pyrazol-4-yl)pyrazolo[1,5-a]pyridin-3-yl]piperazine-1-carboxylate] |  | 5.46 | 16.1 nM | fold induction at 3 mg/kg [1, 4]: 2.81
15 | Cn1cc(-c2ccc3c(N4CCN(c5ncc(Cc6ncon6)cn5)CC4)cnn3c2)cn1 [Compound 301, 3-((2-(4-(6-(1-methyl-1H-pyrazol-4-yl)pyrazolo[1,5-a]pyridin-3-yl)piperazin-1-yl)pyrimidin-5-yl)methyl)-1,2,4-oxadiazole] |  | 2.96 | > 10000 nM | 
16 | Cn1cc(-c2ccc3c(N4CCN(c5ncc(Cc6ccsc6)cn5)CC4)cnn3c2)cn1 [Compound 302, 6-(1-methyl-1H-pyrazol-4-yl)-3-(4-(5-(thiophen-3-ylmethyl)pyrimidin-2-yl)piperazin-1-yl)pyrazolo[1,5-a]pyridine] |  | 8.86 | 137 nM | 
17 | Cn1cc(-c2ccc3c(N4CCN(c5cnc(Cc6ccccc6)cn5)CC4)cnn3c2)cn1 [Compound 303, 3-(4-(5-benzylpyrazin-2-yl)piperazin-1-yl)-6-(1-methyl-1H-pyrazol-4-yl)pyrazolo[1,5-a]pyridine] |  | 2.52 | > 10000 nM | 
18 | CC(C)(C)OC(=O)N1CCN(c2cnn3cc(C4CCOC4)ccc23)CC1 (stereo not drawn) [Compound 304, tert-butyl 4-(6-(tetrahydrofuran-3-yl)pyrazolo[1,5-a]pyridin-3-yl)piperazine-1-carboxylate] |  | 1.77 | > 10000 nM | 
19 | Cn1cc(-c2ccc3c(N4CCN(c5nnc(Cc6ccccc6)s5)CC4)cnn3c2)cn1 [Compound 306, 2-benzyl-5-(4-(6-(1-methyl-1H-pyrazol-4-yl)pyrazolo[1,5-a]pyridin-3-yl)piperazin-1-yl)-1,3,4-thiadiazole] |  | 4.37 | 2.31 nM | 
20 | Cn1cc(-c2ccc3c(N4CCN(C(=O)OC5CC(F)(F)C5)CC4)cnn3c2)cn1 [Compound 307, 3,3-difluorocyclobutyl 4-[6-(1-methyl-1H-pyrazol-4-yl)pyrazolo[1,5-a]pyridin-3-yl]piperazine-1-carboxylate] |  | 4.20 | 2150 nM | 
21 | Cn1cc(-c2ccc3c(N4CCN(C(=O)OCC5CC(F)(F)C5)CC4)cnn3c2)cn1 [Compound 308, (3,3-difluorocyclobutyl)methyl 4-[6-(1-methyl-1H-pyrazol-4-yl)pyrazolo[1,5-a]pyridin-3-yl]piperazine-1-carboxylate] |  | 3.67 | 2110 nM | 
22 | CC1CC(COC(=O)N2CCN(c3cnn4cc(-c5cnn(C)c5)ccc34)CC2)C1 (stereo not drawn) [Compound 310, (3-methylcyclobutyl)methyl 4-[6-(1-methyl-1H-pyrazol-4-yl)pyrazolo[1,5-a]pyridin-3-yl]piperazine-1-carboxylate] |  | 4.86 | > 10000 nM | 
23 | Cn1cc(-c2ccc3c(N4CCN(C(=O)O[C@@H]5CCc6cc(Cl)ccc65)CC4)cnn3c2)cn1 [Compound 314, (1R)-5-chloro-2,3-dihydro-1H-inden-1-yl 4-[6-(1-methyl-1H-pyrazol-4-yl)pyrazolo[1,5-a]pyridin-3-yl]piperazine-1-carboxylate] |  | 1.64 | 7550 nM | 
24 | COC(=O)[C@@]1(O)C[C@H]2O[C@]1(C)n1c3ccccc3c3c4c(c5c6ccccc6n2c5c31)C(=O)NC4 [Compound K252a, K252a, reference compound] |  |  |  | GPR17 Fold Induction (Over Vehicle; 5 μM) [2]: 2.53; IC50 (PDGFRα; [3]): 427 nM
25 | Cc1ccc(F)c(NC(=O)Nc2ccc(-c3cccc4[nH]nc(N)c34)cc2)c1 [Linifanib (ABT-869), linifanib, reference compound] |  |  |  | GPR17 Fold Induction (Over Vehicle; 5 μM) [2]: 4.68; IC50 (PDGFRα; [3]): 1210 nM
26 | CN(C[C@@H]1COCCO1)S(=O)(=O)Nc1ccc2ccc3ncc(-c4cnn(C)c4)cc3c(=O)c2c1 [MK-2461, reference compound] | 1.47 |  |  | 
27 | Cc1[nH]c(/C=C2\C(=O)Nc3ccccc32)c(C)c1CCC(=O)O [Orantinib, orantinib, reference compound] | 2.43 |  |  | 
28 | Cc1ccccc1C(OCCN(C)C)c1ccccc1 (stereo not drawn) [Orphenadrine] | 1.07 |  |  | 
29 | Cc1[nH]c(/C=C2\C(=O)Nc3ccc(F)cc32)c(C)c1C(=O)NC[C@H](O)CN1CCOCC1 [SU-14813, reference compound] | 2.63 |  |  | GPR17 Fold Induction (Over Vehicle; 5 μM) [2]: 4.12
30 | COc1ccc(-c2cncc(N[C@@H](C)c3cccc(NC(=O)c4cncc(C)c4)c3)n2)cc1OC [Seralutinib, seralutinib, reference compound] |  |  |  | GPR17 Fold Induction (Over Vehicle; 5 μM) [2]: 3.53; IC50 (PDGFRα; [3]): 228 nM
